# Assay results: patent US8664257B2, “Oxygen-substituted 3-heteroaroylamino-propionic acid derivatives and their use as pharmaceuticals” (Sanofi, priority 2010, dated 2014)
# Biological target: T1, Recombinant human cathepsin A (Homo sapiens, UniProt P10619)
# T1 construct: Recombinant human cathepsin A (residues 29-480, with a C-terminal 10-His tag); 10-His (C); purchased R&D Systems 1049-SE
# T1 sequence (P10619 29-312 limits assumed): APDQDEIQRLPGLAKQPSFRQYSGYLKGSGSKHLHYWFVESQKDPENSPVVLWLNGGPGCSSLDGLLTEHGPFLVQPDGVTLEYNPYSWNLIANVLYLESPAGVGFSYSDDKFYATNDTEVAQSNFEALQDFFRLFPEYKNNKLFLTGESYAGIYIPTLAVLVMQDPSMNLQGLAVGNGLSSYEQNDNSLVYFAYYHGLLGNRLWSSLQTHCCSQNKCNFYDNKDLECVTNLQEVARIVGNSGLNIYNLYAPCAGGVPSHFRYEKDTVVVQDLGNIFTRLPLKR
# T1 sequence (P10619 327-480 limits assumed): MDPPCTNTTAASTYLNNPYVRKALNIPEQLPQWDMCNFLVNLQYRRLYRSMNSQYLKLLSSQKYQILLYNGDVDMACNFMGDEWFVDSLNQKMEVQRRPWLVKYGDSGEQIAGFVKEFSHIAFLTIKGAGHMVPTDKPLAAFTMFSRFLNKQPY
# Assay: Cathepsin A inhibitory activity
# Assay type: biochemical
# Conditions: pharmacological test "Cathepsin A inhibitory activity"; IC50 given as class A/B/C; read-out: Activity (2): Cathepsin A inhibitory activity, IC50 class
# In short: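 Read-out was microfluidic separation of cleaved vs. uncleaved Bodipy FL-bradykinin (2 μM), giving turnover, % inhibition and IC50. Compound and 833 ng/ml enzyme met for 15 min RT in pH 5.5 MES/DTT before substrate (15 min RT). The 29-480 His-tagged human enzyme was first activated by cathepsin L, then E-64 (10 μM).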
row,Structure (SMILES),IC50 [nM]
1,O=C(O)C[C@H](NC(=O)c1cc(O)n(-c2ccccc2Cl)n1)c1cccc(Cl)c1 [Example 214],100 to 1000
2,O=C(O)CC(NC(=O)c1cc(O)n(-c2cccc(Cl)c2)n1)c1cccc(Cl)c1F (centres unmarked) [Example 262],100 to 1000
3,O=C(O)C[C@H](NC(=O)c1cc(O)n(-c2ccc(F)cc2F)n1)c1cccc(Cl)c1Cl [Example 181],< 100
4,O=C(O)C[C@H](NC(=O)c1cc(O)n(-c2ccccc2)n1)c1cccc(Cl)c1 [Example 167],100 to 1000
5,O=C(O)C[C@H](NC(=O)c1cc(O)n(-c2ccccc2Cl)n1)c1cccc(Cl)c1Cl [Example 212],< 100
6,Cc1ccc(C(CC(=O)O)NC(=O)c2cc(O)n(-c3ccccc3Cl)n2)c(C)c1 (centres unmarked) [Example 225],100 to 1000
7,O=C(O)CC(NC(=O)c1cc(O)n(-c2ccccc2F)n1)c1ccc(OC(F)(F)F)cc1 (centres unmarked) [Example 239],100 to 1000
8,COc1ccc([C@H](CC(=O)O)NC(=O)c2cc(O)n(-c3ccccc3Cl)n2)cn1 [Example 139],100 to 1000
9,O=C(O)CC(NC(=O)c1cc(O)n(-c2ccccc2)n1)c1cccc(Cl)c1F (centres unmarked) [Example 172],100 to 1000
10,O=C(O)C[C@H](NC(=O)c1cc(O)n(-c2cccc(Cl)c2)n1)c1cccc(C(F)(F)F)c1 [Example 259],1000 to 30000
11,O=C(O)CC(NC(=O)c1cc(O)n(-c2ccccc2)n1)c1cccc(Oc2ccc(Cl)cc2)c1 (centres unmarked) [Example 173],1000 to 30000
12,O=C(O)CC(NC(=O)c1cc(O)n(-c2ccccc2F)n1)c1cccc(Cl)c1F (centres unmarked) [Example 244],100 to 1000
13,O=C(O)CC(NC(=O)c1cc(O)n(-c2ccccc2F)n1)c1cccc(C(F)(F)F)c1 (centres unmarked) [Example 231],100 to 1000
14,O=C(O)C[C@H](NC(=O)c1cc(O)n(-c2cccc(Cl)c2)n1)c1ccc(C(F)(F)F)cc1 [Example 256],1000 to 30000
15,O=C(O)CC(NC(=O)c1cc(O)n(-c2ccccc2F)n1)c1ccc(Cl)cc1F (centres unmarked) [Example 243],100 to 1000

# Same assay, conditions: read-out: Activity (2): Cathepsin A inhibitory activity (IC50 class)
row,Structure (SMILES),IC50 [nM]
1,"COc1cc(C(=O)N[C@@H](CC(=O)O)c2ccccc2C(F)(F)F)nn1-c1ccccc1F [Example 680, (S)-3-{[1-(2-Fluoro-phenyl)-5-methoxy-1H-pyrazole-3-carbonyl]-amino}-3-(2-trifluoromethyl-phenyl)-propionic acid]",100 to 1000
2,CCC(O)COc1cc(C(=O)N[C@@H](CC(=O)O)c2ccccc2C)nn1-c1ccccc1F (some centres unmarked) [Example 755],< 100
3,Cc1ccccc1[C@H](CC(=O)O)NC(=O)c1cc(O)n(-c2cccc(S(N)(=O)=O)c2)n1 [Example 601],100 to 1000
4,Cc1ccccc1[C@H](CC(=O)O)NC(=O)c1cc(OC(C)C)n(-c2ccccc2F)n1 [Example 630],< 100
5,O=C(O)CC(NC(=O)c1cc(O)n(-c2ccccc2F)n1)c1ccc(-c2ccc(C(F)(F)F)cc2)cc1 (centres unmarked) [Example 576],100 to 1000
6,O=C(O)C[C@H](NC(=O)c1cc(OCC2CC2)n(-c2ccccc2F)n1)c1ccccc1C(F)(F)F [Example 701],100 to 1000
7,Cc1ccccc1[C@H](CC(=O)O)NC(=O)c1cc(OCCC(C)(C)C)n(-c2ccccc2F)n1 [Example 659],< 100
8,"O=C(O)CC(NC(=O)c1cc(O)n(-c2ccccc2)n1)c1ccc(-n2cncn2)cc1 (centres unmarked) [Example 563, 3-[(5-Hydroxy-1-phenyl-1H-pyrazole-3-carbonyl)-amino]-3-(4-[1,2,4]triazol-1-yl-phenyl)-propionic acid]",1000 to 30000
9,"O=C(O)CC(NC(=O)c1cc(O)n(-c2ccccc2Cl)n1)c1ccc(-n2cncn2)cc1 (centres unmarked) [Example 557, 3-{[1-(2-Chloro-phenyl)-5-hydroxy-1H-pyrazole-3-carbonyl]-amino}-3-(4-[1,2,4]triazol-1-yl-phenyl)-propionic acid]",100 to 1000
10,Cc1ccccc1[C@H](CC(=O)O)NC(=O)c1cc(OC2CCCCC2)n(-c2ccccc2F)n1 [Example 631],< 100
11,CCOc1cc(C(=O)N[C@@H](CC(=O)O)c2ccccc2C(F)(F)F)nn1-c1ccccc1F [Example 721],100 to 1000
12,Cc1ccccc1[C@H](CC(=O)O)NC(=O)c1cc(O)n(-c2cccc(Cl)c2F)n1 [Example 589],100 to 1000
13,O=C(O)CC(NC(=O)c1cc(O)n(-c2ccccc2C(F)(F)F)n1)c1ccc(-c2ccc(F)cc2)cc1 (centres unmarked) [Example 569],100 to 1000
14,CCOc1cc(C(=O)N[C@@H](CC(=O)O)c2cccc(OC)c2)nn1-c1ccccc1F [Example 711],100 to 1000
15,O=C(O)CC(NC(=O)c1cc(O)n(-c2ccccc2F)n1)c1ccc(-c2ccccc2F)cc1 (centres unmarked) [Example 584],100 to 1000
16,COc1ccccc1[C@H](CC(=O)O)NC(=O)c1cc(OC)n(-c2ccccc2F)n1 [Example 667],100 to 1000
17,"CC(C)(C)[C@@H](O)COc1cc(C(=O)N[C@@H](CC(=O)O)c2ccccc2Cl)nn1-c1ccccc1F [Example 793, (S)-3-(2-Chloro-phenyl)-3-{[1-(2-fluoro-phenyl)-5-((R)-2-hydroxy-3,3-dimethyl-butoxy)-1H-pyrazole-3-carbonyl]-amino}-propionic acid]",< 100

# Same assay, conditions: read-out: Activity (2): Cathepsin A inhibitory activity, IC50 class
row,Structure (SMILES),IC50 [nM]
1,O=C(O)CC(NC(=O)c1cc(O)n(-c2ccccc2)n1)c1ccc(C(F)(F)F)cc1 (centres unmarked) [Example 71],1000 to 30000
2,O=C(O)C[C@H](NC(=O)c1cc(O)n(-c2ccccc2Cl)n1)c1c(F)cccc1F [Example 114],100 to 1000
3,"CC(C)C(C)(O)COc1cc(C(=O)N[C@@H](CC(=O)O)c2ccccc2C(F)(F)F)nn1-c1ccccc1F (stereo partly drawn) [Example 812, (S)-3-{[1-(2-Fluoro-phenyl)-5-(2-hydroxy-2,3-dimethyl-butoxy)-1H-pyrazole-3-carbonyl]-amino}-3-(2-trifluoromethyl-phenyl)-propionic acid]",< 100
4,O=C(O)C[C@H](NC(=O)c1cc(O)n(-c2ccc(Cl)cc2)n1)c1c(F)cccc1F [Example 295],1000 to 30000
5,O=C(O)CC(NC(=O)c1cc(O)n(-c2ccccc2)n1)C1CCCCC1 (centres unmarked) [Example 18],100 to 1000
6,"CC(C)(C)[C@](C)(O)COc1cc(C(=O)N[C@@H](CC(=O)O)c2ccc(F)cc2)nn1-c1ccccc1F [Example 880, (S)-3-(4-Fluoro-phenyl)-3-{[1-(2-fluoro-phenyl)-5-((S)-2-hydroxy-2,3,3-trimethyl-butoxy)-1H-pyrazole-3-carbonyl]-amino}-propionic acid]",< 100
7,Cc1ccccc1[C@H](CC(=O)O)NC(=O)c1cc(O)n(-c2ccnc(Cl)c2)n1 [Example 131],100 to 1000
8,Cc1ccc(C)c(-n2nc(C(=O)NC(CC(=O)O)c3ccc(F)cc3)cc2O)c1 (centres unmarked) [Example 1],1000 to 30000
9,COc1ccc(C(CC(=O)O)NC(=O)c2cc(O)n(-c3ccccc3F)n2)c(F)c1 (centres unmarked) [Example 133],100 to 1000
10,"CC(C)C(C)(O)COc1cc(C(=O)NC(CC(=O)O)C2CCCCC2)nn1-c1ccccc1F (centres unmarked) [Example 813, 3-Cyclohexyl-3-{[1-(2-fluoro-phenyl)-5-(2-hydroxy-2,3-dimethyl-butoxy)-1H-pyrazole-3-carbonyl]-amino}-propionic acid]",< 100

# Second part, the compound after the results:
row,IC50 [nM],Structure (SMILES)
1,1000 to 30000,N#Cc1cccc([C@H](CC(=O)O)NC(=O)c2cc(O)n(-c3ccc(F)cc3)n2)c1 [Example 340]
2,100 to 1000,O=C(O)CC(NC(=O)c1cc(O)n(-c2ccc(F)cc2F)n1)c1cccc(Cl)c1 (centres unmarked) [Example 380]
3,100 to 1000,O=C(O)C[C@H](NC(=O)c1cc(O)n(-c2ccc(F)cc2)n1)c1ccccc1F [Example 366]
4,100 to 1000,O=C(O)C[C@H](NC(=O)c1cc(O)n(-c2cccc(F)c2)n1)c1ccc(F)cc1 [Example 311]
5,100 to 1000,COc1cccc([C@H](CC(=O)O)NC(=O)c2cc(O)n(-c3ccc(F)cc3)n2)c1OC [Example 353]
6,< 100,"Cc1ccccc1[C@H](CC(=O)O)NC(=O)c1cc(OCC(C)(O)c2ccccc2)n(-c2ccccc2F)n1 (stereo partly drawn) [Example 891, (S)-3-{[1-(2-Fluoro-phenyl)-5-(2-hydroxy-2-phenyl-propoxy)-1H-pyrazole-3-carbonyl]-amino}-3-o-tolyl-propionic acid]"

# Same assay, conditions: recombinant human cathepsin A 833 ng/ml, Bodipy FL-labeled bradykinin 2 μM, pH 5.5; read-out: CATH-A IC50
row,Structure (SMILES),IC50 [nM]
1,"O=C(O)CC(NC(=O)c1cc(O)n(-c2ccccc2)n1)c1ccc(-n2cncn2)cc1 (centres unmarked) [Example 563, 3-[(5-Hydroxy-1-phenyl-1H-pyrazole-3-carbonyl)-amino]-3-(4-[1,2,4]triazol-1-yl-phenyl)-propionic acid]",1740
2,"O=C(O)CC(NC(=O)c1cc(O)n(-c2ccccc2Cl)n1)c1ccc(-n2cncn2)cc1 (centres unmarked) [Example 557, 3-{[1-(2-Chloro-phenyl)-5-hydroxy-1H-pyrazole-3-carbonyl]-amino}-3-(4-[1,2,4]triazol-1-yl-phenyl)-propionic acid]",839
3,"O=C(O)CC(NC(=O)c1cc(O)n(-c2ccc(Cl)cc2)n1)c1cc(F)ccc1Cl (centres unmarked) [Example 470, 3-(2-Chloro-5-fluoro-phenyl)-3-{[1-(4-chloro-phenyl)-5-hydroxy-1H-pyrazole-3-carbonyl]-amino}-propionic acid]",398

# Same assay, conditions: recombinant human cathepsin A; read-out: Activity (2): Cathepsin A inhibitory activity, IC50 class
row,Structure (SMILES),IC50 [nM]
1,COc1ccc(C(CC(=O)O)NC(=O)c2cc(O)n(-c3ccc(Cl)cc3)n2)c(Cl)c1 (centres unmarked) [Example 424],100 to 1000
2,Cc1ccc(C)c(C(CC(=O)O)NC(=O)c2cc(O)n(-c3ccccc3F)n2)c1 (centres unmarked) [Example 406],100 to 1000
3,"O=C(O)CC(NC(=O)c1cc(O)n(-c2ccc(Cl)cc2)n1)c1cc(F)ccc1Cl (centres unmarked) [Example 470, 3-(2-Chloro-5-fluoro-phenyl)-3-{[1-(4-chloro-phenyl)-5-hydroxy-1H-pyrazole-3-carbonyl]-amino}-propionic acid]",100 to 1000
4,COc1ccc([C@H](CC(=O)O)NC(=O)c2cc(O)n(-c3ccc(Cl)cc3)n2)cc1 [Example 423],1000 to 30000
5,"COc1cc(C(=O)N[C@@H](CC(=O)NC(C)(C)C)c2ccccc2C)nn1-c1ccccc1F [Example 922, 1-(2-Fluoro-phenyl)-5-methoxy-1H-pyrazole-3-carboxylic acid ((S)-2-tert-butylcarbamoyl-1-o-tolyl-ethyl)-amide]",1000 to 30000
